# Assays:
# [1] = biological target: T1, Glucocorticoid receptor (Homo sapiens) (UniProt P04150); assay: Transrepression activity at glucocorticoid receptor in human HepG2 cells assessed as inhibition of TNFalpha/IL1beta-stimulated NFkappaB-dependent E-selectin repression by luciferase reporter gene assay relative to Dexamethasone; assay type: cell-based; set-up: scale not given: the % may be the effect or the level left
# T1 sequence (whole entry): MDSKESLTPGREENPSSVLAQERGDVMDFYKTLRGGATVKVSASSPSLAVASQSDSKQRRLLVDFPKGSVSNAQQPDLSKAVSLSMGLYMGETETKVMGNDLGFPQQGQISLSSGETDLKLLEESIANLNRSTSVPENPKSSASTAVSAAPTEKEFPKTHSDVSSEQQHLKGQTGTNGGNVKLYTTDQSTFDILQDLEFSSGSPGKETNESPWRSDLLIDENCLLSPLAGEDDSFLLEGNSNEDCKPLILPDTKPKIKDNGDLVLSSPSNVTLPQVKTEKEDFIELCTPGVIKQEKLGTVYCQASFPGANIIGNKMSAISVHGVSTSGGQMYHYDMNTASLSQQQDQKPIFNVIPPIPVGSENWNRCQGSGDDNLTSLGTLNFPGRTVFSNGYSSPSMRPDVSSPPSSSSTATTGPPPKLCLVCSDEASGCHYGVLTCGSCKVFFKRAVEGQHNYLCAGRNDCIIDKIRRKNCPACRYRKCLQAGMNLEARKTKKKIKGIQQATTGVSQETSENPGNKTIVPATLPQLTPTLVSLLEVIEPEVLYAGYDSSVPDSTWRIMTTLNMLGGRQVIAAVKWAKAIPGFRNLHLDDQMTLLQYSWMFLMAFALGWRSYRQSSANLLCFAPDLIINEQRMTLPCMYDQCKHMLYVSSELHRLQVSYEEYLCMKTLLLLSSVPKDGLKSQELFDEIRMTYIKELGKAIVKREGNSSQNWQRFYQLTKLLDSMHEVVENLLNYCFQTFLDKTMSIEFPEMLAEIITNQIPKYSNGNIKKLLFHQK
# Glucocorticoid receptor [2] = biological target: T2, Glucocorticoid receptor (Homo sapiens, UniProt P04150); assay: Displacement of radiolabeled Dexamethasone from glucocorticoid receptor expressed in baculovirus
# T2 sequence (P04150 whole entry): T1 sequence (whole entry)
# Glucocorticoid receptor [3] = biological target: T2, Glucocorticoid receptor; assay: Transrepression activity at glucocorticoid receptor in human HepG2 cells assessed as inhibition of TNFalpha/IL1beta-stimulated NFkappaB-dependent E-selectin repression by luciferase reporter gene assay; assay type: cell-based
# [4] = biological target: T1, Glucocorticoid receptor (Homo sapiens); assay: Transrepression activity at glucocorticoid receptor in human NHDF cells assessed as inhibition of IL-1beta-stimulated AP1 dependent IL-6 repression by ELISA relative to Dexamethasone; assay type: cell-based; set-up: concentration or dose not given beside the values
# Glucocorticoid receptor [5] = biological target: T2, Glucocorticoid receptor; assay: Transrepression activity at glucocorticoid receptor in human NHDF cells assessed as inhibition of IL-1beta-stimulated AP1 dependent IL-6 repression by ELISA; assay type: cell-based
# [6] = biological target: T1, Glucocorticoid receptor (Homo sapiens); assay: Agonist activity at glucocorticoid receptor in human HepG2 cells co-transfected with GRE assessed as GRE activation by luciferase reporter gene assay relative to Dexamethasone; assay type: functional, cell-based; set-up: concentration or dose not given beside the values
# [7] = biological target: T1, Glucocorticoid receptor (Homo sapiens); assay: Agonist activity at glucocorticoid receptor in human HepG2 cells co-transfected with PEPCK assessed as GRE activation by luciferase reporter gene assay relative to Dexamethasone; assay type: functional, cell-based
# Glucocorticoid receptor [8] = biological target: T2, Glucocorticoid receptor; assay: Agonist activity at glucocorticoid receptor in human HepG2 cells co-transfected with PEPCK assessed as GRE activation by luciferase reporter gene assay; assay type: functional, cell-based
# Progesterone receptor = biological target: T3, Progesterone receptor (Homo sapiens, UniProt P06401); assay: Binding affinity to progesterone receptor
# T3 sequence (P06401 whole entry): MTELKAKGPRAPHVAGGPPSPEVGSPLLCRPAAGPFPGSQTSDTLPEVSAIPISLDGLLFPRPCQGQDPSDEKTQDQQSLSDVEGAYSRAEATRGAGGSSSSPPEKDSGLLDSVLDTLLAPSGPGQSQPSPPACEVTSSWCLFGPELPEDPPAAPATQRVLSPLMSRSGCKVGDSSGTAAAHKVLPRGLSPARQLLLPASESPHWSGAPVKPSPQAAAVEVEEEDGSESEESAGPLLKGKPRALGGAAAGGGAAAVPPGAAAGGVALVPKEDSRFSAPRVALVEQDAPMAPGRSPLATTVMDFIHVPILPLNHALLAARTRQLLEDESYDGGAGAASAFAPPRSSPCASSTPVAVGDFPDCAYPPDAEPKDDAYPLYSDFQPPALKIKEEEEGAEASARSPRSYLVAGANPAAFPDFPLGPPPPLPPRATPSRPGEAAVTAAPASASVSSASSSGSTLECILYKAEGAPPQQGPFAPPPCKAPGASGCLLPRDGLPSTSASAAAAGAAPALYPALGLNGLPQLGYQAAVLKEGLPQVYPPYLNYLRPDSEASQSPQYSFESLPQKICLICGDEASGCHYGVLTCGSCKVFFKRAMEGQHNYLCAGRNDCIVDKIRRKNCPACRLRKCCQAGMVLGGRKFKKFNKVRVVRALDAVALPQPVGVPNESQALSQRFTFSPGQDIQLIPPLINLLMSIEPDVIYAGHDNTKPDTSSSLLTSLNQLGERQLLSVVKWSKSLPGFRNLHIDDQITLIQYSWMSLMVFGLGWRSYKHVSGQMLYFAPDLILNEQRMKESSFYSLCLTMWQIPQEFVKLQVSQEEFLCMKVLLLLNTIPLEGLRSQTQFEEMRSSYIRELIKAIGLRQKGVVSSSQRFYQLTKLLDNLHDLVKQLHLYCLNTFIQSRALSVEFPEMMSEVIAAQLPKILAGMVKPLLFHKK
# Androgen receptor = biological target: T4, Androgen receptor (Homo sapiens, UniProt P10275); assay: Binding affinity to androgen receptor
# T4 sequence (P10275 whole entry): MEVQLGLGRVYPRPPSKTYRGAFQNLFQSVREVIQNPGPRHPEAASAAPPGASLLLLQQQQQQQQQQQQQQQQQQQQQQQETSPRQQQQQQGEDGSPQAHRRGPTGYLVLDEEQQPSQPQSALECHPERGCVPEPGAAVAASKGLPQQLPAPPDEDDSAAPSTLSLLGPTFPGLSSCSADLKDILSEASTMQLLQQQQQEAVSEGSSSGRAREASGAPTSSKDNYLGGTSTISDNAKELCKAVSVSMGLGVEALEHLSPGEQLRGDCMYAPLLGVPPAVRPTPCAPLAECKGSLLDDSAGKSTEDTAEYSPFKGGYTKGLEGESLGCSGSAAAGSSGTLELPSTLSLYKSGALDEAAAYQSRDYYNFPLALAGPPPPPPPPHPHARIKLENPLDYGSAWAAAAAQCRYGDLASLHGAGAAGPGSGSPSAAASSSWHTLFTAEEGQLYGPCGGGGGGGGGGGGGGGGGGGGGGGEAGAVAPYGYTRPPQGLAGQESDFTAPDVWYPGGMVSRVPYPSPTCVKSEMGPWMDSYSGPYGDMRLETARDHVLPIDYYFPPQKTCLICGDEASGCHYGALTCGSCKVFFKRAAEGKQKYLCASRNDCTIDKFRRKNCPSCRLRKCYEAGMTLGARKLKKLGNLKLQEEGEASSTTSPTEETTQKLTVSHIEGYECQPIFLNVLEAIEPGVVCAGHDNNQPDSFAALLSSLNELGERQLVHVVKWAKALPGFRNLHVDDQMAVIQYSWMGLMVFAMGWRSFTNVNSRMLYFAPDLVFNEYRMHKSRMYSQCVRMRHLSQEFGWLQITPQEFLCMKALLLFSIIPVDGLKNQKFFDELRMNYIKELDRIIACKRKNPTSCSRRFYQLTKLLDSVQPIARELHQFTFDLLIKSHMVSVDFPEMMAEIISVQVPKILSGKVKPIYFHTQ
# Glucocorticoid receptor [9] = biological target: T2, Glucocorticoid receptor; assay: Agonist activity at glucocorticoid receptor in human HepG2 cells co-transfected with GRE assessed as GRE activation by luciferase reporter gene assay; assay type: functional, cell-based
SMILES,Activity [1] [%],Ki (Glucocorticoid receptor [2]) [nM],IC50 (Glucocorticoid receptor [3]) [nM],Activity [4] [%],further results
CO/N=C1/c2c(cc(F)c(-c3cccc4c(Cl)c[nH]c34)c2F)NC(C)(C)C1O (stereo not drawn),100,0.7,14,99,IC50 (Glucocorticoid receptor [5]): 22 nM
CC1(C)C/C(=N\OC(C)(C)C)c2c(cc(F)c(-c3cccc4cc[nH]c34)c2F)N1,93,7,3.5,57,IC50 (Glucocorticoid receptor [5]): 40 nM
C[C@]12C=CC(=O)C=C1CC[C@@H]1[C@@H]2[C@@H](O)C[C@@]2(C)[C@H]1CC[C@]2(O)C(=O)CO,–,–,–,–,Activity [6]: 129%
CCO/N=C1\CC(C)(C)Nc2cc(F)c(-c3cccc4cc[nH]c34)c(F)c21,91,0.4,6.9,–,–
C[C@H]1c2c(cc(F)c(-c3cccc4cc[nH]c34)c2F)NC(C)(C)[C@@H]1O,–,–,–,90,Activity [7]: 75%; Activity [6]: 138%; EC50 (Glucocorticoid receptor [8]): 53 nM
CO/N=C1\CC(C)(C)Nc2cc(F)c(-c3cccc4cc[nH]c34)c(F)c21,83,7,42,–,–
Cc1c[nH]c2c(-c3c(F)cc4c(c3F)/C(=N/Oc3ccccc3)CC(C)(C)N4)cccc12,67,31,51,–,–
COC(=O)C(C)(C)O/N=C1\CC(C)(C)Nc2cc(F)c(-c3cccc4c(C)c[nH]c34)c(F)c21,87,1.5,22,–,–
CC1(C)C/C(=N\O)c2c(cc(F)c(-c3cccc4cc[nH]c34)c2F)N1,–,370,–,–,–
CCO/N=C1/c2c(cc(F)c(-c3cccc4c(C)c[nH]c34)c2F)NC(C)(C)C1O (racemic),98,0.6,2.6,97,Activity [7]: 61%; Ki (Progesterone receptor): 27 nM; Ki (Androgen receptor): 430 nM; Activity [6]: 138%; IC50 (Glucocorticoid receptor [5]): 5.2 nM; EC50 (Glucocorticoid receptor [9]): 1.5 nM; EC50 (Glucocorticoid receptor [8]): 115 nM
Cc1c[nH]c2c(-c3c(F)cc4c(c3F)/C(=N/OC(C)(C)C(=O)O)CC(C)(C)N4)cccc12,–,2700,–,–,–
Cc1c[nH]c2c(-c3c(F)cc4c(c3F)/C(=N/OCc3ccccc3)CC(C)(C)N4)cccc12,74,5.8,8.8,–,–
